In patent EP0232650B1, “Analogues of hypocalcemic polypeptide compounds preserving the calcium content of the body, their manufacture, their use as medicaments and the compositions thereof” (MILHAUD, Gérard, priority 1985, dated 1989):
Where a SMILES comes first, the peptide text is derived from it. Bridges are numbered along the chain shown (N, C = ends).

Test: Hypocalcemic activity in the fasted male rat (fall in calcemia one hour after intravenous injection, compared with Research Standard B)
Assay type: in vivo
Details: male rat 100-120 g, fasted 16 hours, peptide diluted in sodium acetate buffer 0,1 N pH 6 with 0,1 % albumin, versus "Research Standard B"
Description: Elle est déterminée chez le rat mâle pesant de 100 à 120 g et soumis à un jeûne de 16 heures. L'activité est exprimée en unité MRC à partir de la baisse de la calcémie, mesurée une heure après l'injection intraveineuse de peptide à tester convenablement dilué en tampon acétate de sodium 0,1 N pH 6 et 0,1 % d'albumine, par comparaison avec l'activité du "Research Standard B" convenablement dilué. L'activité biologique du peptide de l'exemple 1 est supérieure à 4000 unités MRC par mg et celle du peptide de l'exemple 2 est supérieure à 4500 unités MRC par mg.

**Q.** Which activité biologique does the source give for `CC(C)C[C@H](NC(=O)[C@H](CCCCN)NC(=O)CNC(=O)[C@H](CC(C)C)NC(=O)[C@@H](NC(=O)[C@@H]1CSSC[C@H](N)C(=O)N[C@@H](CC(N)=O)C(=O)N[C@@H](CO)C(=O)N[C@@H](CC(C)C)C(=O)N[C@@H](CO)C(=O)N[C@@H]([C@@H](C)O)C(=O)N1)C(C)C)C(=O)N[C@@H](CO)C(=O)N[C@@H](CCC(N)=O)C(=O)N[C@@H](CCC(=O)O)C(=O)N[C@@H](CC(C)C)C(=O)N[C@@H](Cc1c[nH]cn1)C(=O)N[C@@H](CCCCN)C(=O)N[C@@H](CC(C)C)C(=O)N[C@@H](CCC(N)=O)C(=O)N[C@H](C(=O)N[C@@H](Cc1ccc(O)cc1)C(=O)N1CCC[C@H]1C(=O)N[C@@H](CCCNC(=N)N)C(=O)N[C@H](C(=O)N[C@@H](CC(=O)O)C(=O)N[C@H](C(=O)NCC(=O)N[C@@H](C)C(=O)NCC(=O)N[C@H](C(=O)N1CCC[C@H]1C(N)=O)[C@@H](C)O)C(C)C)[C@@H](C)O)[C@@H](C)O` [exemple 1, Cys - Asn - Ser - Leu - Sers - Thr - Cys - Val - Leu - Glyio - Lys - Leu - Ser - Gin - Glu1s - Leu - His - Lys - Leu - Gln20- Thr - Tyr - Pro - Arg - Thr25- Asp - Val - Gly - Ala - Gly30 - Thr - Proamide] (H-CNSLSTCVLGKLSQELHKLQTYPRTDVGAGTP-NH2; disulfide 1-7) here?
**A.** > 4000 unités MRC par mg
